Read-outs that look alike come from different tables or passages of the source.
Legend:
CDK4/cyclin D1 [1] = target: T1, CDK4/cyclin D1 (Homo sapiens, UniProt P11802); assay: SelectScreen Adapta; format: biochemical; conditions: INX-0315 at 100nM
T1 construct: purchased ThermoFisher PV4400
Description: (§1) INX-315 was first evaluated in the SelectScreen Biochemical Kinase Profiling at Thermo Fisher Scientific (Madison, WI). The primary screen consisted of INX-315 dosed at a single concentration of 100 nmol/L in 1% DMSO across each platform within the SelectScreen array of assays, LanthaScreen Eu Kinase Binding Assay; AdaptaScreen; and Z'LyteScreen using preestablished conditions at Thermo Fisher Scientific as shown in Supplementary Table S2. […] The follow-up screen consisted of 10-point dose–response curves for INX-315 from 1 µmol/L to 0.0495 nmol/L.

CDK7/cyclin H/MNAT1 = target: T2, CDK7/cyclin H/MNAT1 (Homo sapiens, UniProt P50613); assay: SelectScreen Adapta; format: biochemical; conditions: INX-0315 at 100nM
T2 construct: purchased Thermo Fisher Scientific SelectScreen (plus Nanosyn / Reaction Biology for CDK/cyclin lines)
Description: as §1

LRRK2 R1441C = target: T3, LRRK2 R1441C (Homo sapiens, UniProt Q5S007, R1441C); assay: SelectScreen Adapta; format: biochemical; conditions: INX-0315 at 100nM
T3 construct: purchased Thermo Fisher Scientific SelectScreen (plus Nanosyn / Reaction Biology for CDK/cyclin lines)
Description: as §1

PIP5K1B = target: T4, PIP5K1B (Homo sapiens, UniProt O14986); assay: SelectScreen Adapta; format: biochemical; conditions: INX-0315 at 100nM
T4 construct: purchased Thermo Fisher Scientific SelectScreen (plus Nanosyn / Reaction Biology for CDK/cyclin lines)
Description: as §1

SPHK2 = target: T5, SPHK2 (Homo sapiens, UniProt Q9NRA0); assay: SelectScreen Adapta; format: biochemical; conditions: INX-0315 at 100nM
T5 construct: purchased Thermo Fisher Scientific SelectScreen (plus Nanosyn / Reaction Biology for CDK/cyclin lines)
Description: as §1

ABL1 G250E = target: T6, ABL1 G250E (Homo sapiens, UniProt P00519, G250E); assay: SelectScreen ZLYTE; format: biochemical; conditions: INX-0315 at 100nM
T6 construct: purchased Thermo Fisher Scientific SelectScreen (plus Nanosyn / Reaction Biology for CDK/cyclin lines)
Description: as §1

ADRBK1 (GRK2) = target: T7, ADRBK1 (GRK2) (Homo sapiens, UniProt P25098); assay: SelectScreen ZLYTE; format: biochemical; conditions: INX-0315 at 100nM
T7 construct: purchased Thermo Fisher Scientific SelectScreen (plus Nanosyn / Reaction Biology for CDK/cyclin lines)
Description: as §1

DYRK4 = target: T8, DYRK4 (Homo sapiens, UniProt Q9NR20); assay: SelectScreen ZLYTE; format: biochemical; conditions: INX-0315 at 100nM
T8 construct: purchased Thermo Fisher Scientific SelectScreen (plus Nanosyn / Reaction Biology for CDK/cyclin lines)
Description: as §1

GSK3B (GSK3 beta) = target: T9, GSK3B (GSK3 beta) (Homo sapiens, UniProt P49841); assay: SelectScreen ZLYTE; format: biochemical; conditions: INX-0315 at 100nM
T9 construct: purchased Thermo Fisher Scientific SelectScreen (plus Nanosyn / Reaction Biology for CDK/cyclin lines)
Description: as §1

HIPK2 = target: T10, HIPK2 (Homo sapiens, UniProt Q9H2X6); assay: SelectScreen ZLYTE; format: biochemical; conditions: INX-0315 at 100nM
T10 construct: purchased Thermo Fisher Scientific SelectScreen (plus Nanosyn / Reaction Biology for CDK/cyclin lines)
Description: as §1

MAP2K1 (MEK1) = target: T11, MAP2K1 (MEK1) (Homo sapiens, UniProt Q02750); assay: SelectScreen ZLYTE; format: biochemical; conditions: INX-0315 at 100nM
T11 construct: purchased Thermo Fisher Scientific SelectScreen (plus Nanosyn / Reaction Biology for CDK/cyclin lines)
T11 sequence (Q02750 whole entry): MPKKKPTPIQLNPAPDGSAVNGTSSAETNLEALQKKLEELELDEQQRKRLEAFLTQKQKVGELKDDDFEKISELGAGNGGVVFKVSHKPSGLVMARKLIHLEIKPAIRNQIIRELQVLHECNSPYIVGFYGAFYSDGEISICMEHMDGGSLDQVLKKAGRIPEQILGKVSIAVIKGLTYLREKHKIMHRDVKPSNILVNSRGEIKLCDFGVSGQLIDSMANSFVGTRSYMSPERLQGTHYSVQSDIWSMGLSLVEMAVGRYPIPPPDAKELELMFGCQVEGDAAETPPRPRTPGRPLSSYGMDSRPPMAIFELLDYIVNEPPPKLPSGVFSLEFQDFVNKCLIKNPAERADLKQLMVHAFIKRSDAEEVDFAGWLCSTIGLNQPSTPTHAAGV
Description: as §1

MYLK2 (skMLCK) = target: T12, MYLK2 (skMLCK) (Homo sapiens, UniProt Q9H1R3); assay: SelectScreen ZLYTE; format: biochemical; conditions: INX-0315 at 100nM
T12 construct: purchased Thermo Fisher Scientific SelectScreen (plus Nanosyn / Reaction Biology for CDK/cyclin lines)
Description: as §1

NTRK1 (TRKA) = target: T13, NTRK1 (TRKA) (Homo sapiens, UniProt P04629); assay: SelectScreen ZLYTE; format: biochemical; conditions: INX-0315 at 100nM
T13 construct: purchased Thermo Fisher Scientific SelectScreen (plus Nanosyn / Reaction Biology for CDK/cyclin lines)
T13 sequence (P04629 33-796): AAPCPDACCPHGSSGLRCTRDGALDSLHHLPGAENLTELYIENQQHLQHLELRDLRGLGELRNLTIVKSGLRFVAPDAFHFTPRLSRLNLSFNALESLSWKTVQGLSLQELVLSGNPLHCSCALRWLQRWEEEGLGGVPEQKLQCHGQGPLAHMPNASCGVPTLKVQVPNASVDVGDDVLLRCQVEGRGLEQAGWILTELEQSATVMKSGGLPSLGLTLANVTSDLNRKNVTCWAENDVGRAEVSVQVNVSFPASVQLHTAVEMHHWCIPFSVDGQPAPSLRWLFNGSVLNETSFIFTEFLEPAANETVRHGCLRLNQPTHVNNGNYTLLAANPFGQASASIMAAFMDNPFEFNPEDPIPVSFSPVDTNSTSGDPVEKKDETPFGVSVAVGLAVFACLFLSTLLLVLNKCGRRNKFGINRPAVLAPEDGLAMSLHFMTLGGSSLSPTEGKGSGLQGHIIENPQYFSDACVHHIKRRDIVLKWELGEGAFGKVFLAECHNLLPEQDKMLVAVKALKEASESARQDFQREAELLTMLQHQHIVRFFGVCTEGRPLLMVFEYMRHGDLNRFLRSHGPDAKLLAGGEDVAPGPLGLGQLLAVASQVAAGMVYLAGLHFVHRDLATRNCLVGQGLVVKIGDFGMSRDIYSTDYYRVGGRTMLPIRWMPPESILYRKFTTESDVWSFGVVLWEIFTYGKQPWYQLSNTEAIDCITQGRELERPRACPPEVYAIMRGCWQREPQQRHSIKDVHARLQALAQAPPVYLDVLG
Description: as §1

SRPK2 = target: T14, SRPK2 (Homo sapiens, UniProt P78362); assay: SelectScreen ZLYTE; format: biochemical; conditions: INX-0315 at 100nM
T14 construct: purchased Thermo Fisher Scientific SelectScreen (plus Nanosyn / Reaction Biology for CDK/cyclin lines)
T14 sequence (P78362 whole entry): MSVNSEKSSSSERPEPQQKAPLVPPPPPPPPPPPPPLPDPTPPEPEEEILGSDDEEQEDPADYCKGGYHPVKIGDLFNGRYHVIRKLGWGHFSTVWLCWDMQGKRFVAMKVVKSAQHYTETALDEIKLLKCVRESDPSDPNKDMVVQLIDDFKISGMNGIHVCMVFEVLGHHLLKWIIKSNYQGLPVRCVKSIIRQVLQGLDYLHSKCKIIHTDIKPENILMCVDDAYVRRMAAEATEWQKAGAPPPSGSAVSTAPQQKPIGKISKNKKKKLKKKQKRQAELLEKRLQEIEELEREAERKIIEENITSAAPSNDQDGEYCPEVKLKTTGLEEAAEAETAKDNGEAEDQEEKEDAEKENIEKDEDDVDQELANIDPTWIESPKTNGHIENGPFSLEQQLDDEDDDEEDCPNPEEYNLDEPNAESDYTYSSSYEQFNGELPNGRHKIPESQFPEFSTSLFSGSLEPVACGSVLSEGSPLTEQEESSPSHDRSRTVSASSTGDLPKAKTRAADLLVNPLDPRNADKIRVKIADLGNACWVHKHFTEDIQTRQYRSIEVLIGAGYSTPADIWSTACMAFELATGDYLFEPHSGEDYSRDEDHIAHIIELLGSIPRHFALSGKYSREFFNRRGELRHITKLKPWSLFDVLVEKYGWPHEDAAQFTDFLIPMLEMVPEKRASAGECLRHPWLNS
Description: as §1

CDK1/cyclin B1 = target: T15, CDK1/cyclin B1 (Homo sapiens, UniProt P06493); assay: Nanosyn biochemical assay
T15 construct: purchased Millipore 14-450M
T15 sequence (P06493 whole entry): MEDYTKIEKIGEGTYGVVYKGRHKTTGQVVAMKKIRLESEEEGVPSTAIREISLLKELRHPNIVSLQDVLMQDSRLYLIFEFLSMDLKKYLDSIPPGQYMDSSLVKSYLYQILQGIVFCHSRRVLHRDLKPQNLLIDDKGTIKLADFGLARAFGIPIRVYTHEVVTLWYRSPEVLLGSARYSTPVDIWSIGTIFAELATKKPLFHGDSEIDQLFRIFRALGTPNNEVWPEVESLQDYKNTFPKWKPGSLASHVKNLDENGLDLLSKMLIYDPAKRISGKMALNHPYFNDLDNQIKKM
T15 sequence (P14635 whole entry partner): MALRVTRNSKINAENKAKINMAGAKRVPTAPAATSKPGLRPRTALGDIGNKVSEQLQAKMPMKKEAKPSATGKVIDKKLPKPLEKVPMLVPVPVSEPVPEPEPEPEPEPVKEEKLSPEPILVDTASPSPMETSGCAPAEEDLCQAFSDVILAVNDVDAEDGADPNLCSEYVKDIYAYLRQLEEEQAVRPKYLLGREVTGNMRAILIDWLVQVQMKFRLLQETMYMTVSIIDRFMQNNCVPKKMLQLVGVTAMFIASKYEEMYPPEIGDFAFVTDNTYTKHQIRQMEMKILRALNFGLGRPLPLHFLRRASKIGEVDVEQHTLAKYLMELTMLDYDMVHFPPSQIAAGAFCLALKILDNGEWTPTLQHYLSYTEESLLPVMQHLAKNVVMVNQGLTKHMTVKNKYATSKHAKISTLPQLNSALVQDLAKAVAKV
Procedure: (§2) Compounds were tested in kinase assays (Nanosyn, Inc.). The assays were completed using microfluidic kinase detection technology (Caliper Assay Platform). The compounds were tested in 12-point dose–response format in singlicate at the Km for ATP. Phosphoacceptor substrate peptide concentration used was 1 µmol/L and staurosporine was used as the reference compound for all assays. Details for individual Nanosyn assays performed are provided here: […]

CDK2/cyclin A2 = target: T16, CDK2/cyclin A2 (Homo sapiens, UniProt P24941); assay: Nanosyn biochemical assay; conditions: Supp Fig S1D, representative dose response curve, read-out: IC50 CDK2 - Cyclin A
T16 construct: purchased Millipore 14-448
Procedure: as §2

CDK2/cyclin E1 = target: T17, CDK2/cyclin E1 (Homo sapiens, UniProt P24941); assay: Nanosyn biochemical assay; conditions: for IC50: Nanosyn
T17 construct: purchased Millipore 14-475
Procedure: as §2

CDK3/cyclin E1 = target: T18, CDK3/cyclin E1 (Homo sapiens, UniProt Q00526); assay: Nanosyn biochemical assay
T18 construct: purchased BPS 40103
Procedure: as §2

CDK4/cyclin D1 [2] = target: T1, CDK4/cyclin D1; assay: Nanosyn biochemical assay
Procedure: as §2

CDK5 = target: T19, CDK5 (Homo sapiens, UniProt Q00535); assay: Nanosyn biochemical assay
T19 construct: purchased ThermoFisher PV3000
T19 sequence (Q00535 whole entry): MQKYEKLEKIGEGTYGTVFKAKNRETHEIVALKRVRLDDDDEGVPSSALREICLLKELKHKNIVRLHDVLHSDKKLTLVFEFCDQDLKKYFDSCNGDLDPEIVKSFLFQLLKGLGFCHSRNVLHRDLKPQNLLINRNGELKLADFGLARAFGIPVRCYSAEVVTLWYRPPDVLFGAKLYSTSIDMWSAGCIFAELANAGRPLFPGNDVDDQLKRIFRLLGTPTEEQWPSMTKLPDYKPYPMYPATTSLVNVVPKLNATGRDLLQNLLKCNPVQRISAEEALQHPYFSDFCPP
T19 sequence (Q15078 2-307 partner limits assumed): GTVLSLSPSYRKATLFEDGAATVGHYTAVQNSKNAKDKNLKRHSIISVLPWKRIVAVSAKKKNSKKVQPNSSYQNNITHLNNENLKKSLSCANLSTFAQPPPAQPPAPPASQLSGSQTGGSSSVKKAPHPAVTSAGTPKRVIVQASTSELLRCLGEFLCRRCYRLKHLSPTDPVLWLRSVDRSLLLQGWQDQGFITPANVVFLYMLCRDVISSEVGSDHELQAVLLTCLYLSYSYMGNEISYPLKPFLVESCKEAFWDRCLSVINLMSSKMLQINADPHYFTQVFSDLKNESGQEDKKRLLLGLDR
Procedure: as §2

CDK5/p25 = target: T20, CDK5/p25 (Homo sapiens, UniProt Q00535); assay: Nanosyn biochemical assay; conditions: ATP at Km, value (SEM), read-out: IC50 (nmol/L) CDK5/p25
T20 construct: purchased BPS 40105
T20 sequence (Q00535 whole entry): as the sequence (Q00535 whole entry) above
T20 sequence (Q15078 99-307 partner limits assumed): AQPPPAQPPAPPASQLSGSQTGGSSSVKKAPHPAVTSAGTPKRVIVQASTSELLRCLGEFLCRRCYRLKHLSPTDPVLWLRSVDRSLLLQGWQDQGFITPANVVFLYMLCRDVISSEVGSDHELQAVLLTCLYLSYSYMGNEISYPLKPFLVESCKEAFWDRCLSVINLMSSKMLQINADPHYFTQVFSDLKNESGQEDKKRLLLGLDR
Procedure: as §2

CDK6/cyclin D3 = target: T21, CDK6/cyclin D3 (Homo sapiens, UniProt Q00534); assay: Nanosyn biochemical assay; conditions: Supp Fig S1D, representative dose response curve, read-out: IC50 CDK6 - Cyclin D3
T21 construct: purchased Carna 04-107
T21 sequence (Q00534 whole entry): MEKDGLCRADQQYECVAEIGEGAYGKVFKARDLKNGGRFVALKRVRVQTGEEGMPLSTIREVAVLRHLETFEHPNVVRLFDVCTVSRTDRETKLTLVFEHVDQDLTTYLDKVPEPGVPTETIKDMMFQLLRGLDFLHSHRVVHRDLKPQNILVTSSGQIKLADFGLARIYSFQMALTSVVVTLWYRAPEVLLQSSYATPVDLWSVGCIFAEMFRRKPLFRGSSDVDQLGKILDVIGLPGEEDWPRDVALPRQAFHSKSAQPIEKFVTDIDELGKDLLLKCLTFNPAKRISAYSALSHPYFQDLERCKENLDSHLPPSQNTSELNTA
T21 sequence (P30281 whole entry partner): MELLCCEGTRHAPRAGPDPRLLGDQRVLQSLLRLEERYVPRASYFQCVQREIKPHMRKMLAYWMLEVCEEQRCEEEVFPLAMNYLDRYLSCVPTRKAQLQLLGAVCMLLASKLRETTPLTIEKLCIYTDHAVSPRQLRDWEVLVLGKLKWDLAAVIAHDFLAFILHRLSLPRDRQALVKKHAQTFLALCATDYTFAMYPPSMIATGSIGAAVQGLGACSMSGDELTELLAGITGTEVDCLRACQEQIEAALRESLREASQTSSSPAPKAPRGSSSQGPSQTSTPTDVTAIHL
Procedure: as §2

CDK7 = target: T22, CDK7 (Homo sapiens, UniProt P50613); assay: Nanosyn biochemical assay; conditions: Supp Fig S1C, value (SEM), read-out: IC50 (nM) CDK7
T22 construct: purchased Carna 04-108
Procedure: as §2

CDK9/cyclin T1 = target: T23, CDK9/cyclin T1 (Homo sapiens, UniProt P50750); assay: Nanosyn biochemical assay; conditions: Supp Fig S1D, representative dose response curve, read-out: IC50 CDK9 - Cyclin T1
T23 construct: purchased Carna 04-110
Procedure: as §2

[3] = test system: five cell lines with CCNE1 amplification (ovarian cancer); assay: CellTiter Glo viability assay; format: cell-based; conditions: 144 h
[4] = test system: five lines without CCNE1 amplification (ovarian cancer); assay: CellTiter Glo viability assay; format: cell-based; conditions: 144 h, six days
OVCAR3 cells = assay: Cell cycle flow cytometry; format: cell-based; conditions: 24 hours, as little as 30–100 nmol/L

T1 sequence (P11802 whole entry): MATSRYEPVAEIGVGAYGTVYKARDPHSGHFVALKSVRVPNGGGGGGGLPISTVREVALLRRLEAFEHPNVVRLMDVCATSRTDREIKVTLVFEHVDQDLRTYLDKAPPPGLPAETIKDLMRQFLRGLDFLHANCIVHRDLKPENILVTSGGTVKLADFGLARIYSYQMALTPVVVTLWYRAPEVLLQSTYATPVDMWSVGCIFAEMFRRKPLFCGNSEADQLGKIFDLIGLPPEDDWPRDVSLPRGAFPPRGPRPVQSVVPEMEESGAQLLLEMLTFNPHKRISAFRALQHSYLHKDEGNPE
T1 sequence (P24385 whole entry partner): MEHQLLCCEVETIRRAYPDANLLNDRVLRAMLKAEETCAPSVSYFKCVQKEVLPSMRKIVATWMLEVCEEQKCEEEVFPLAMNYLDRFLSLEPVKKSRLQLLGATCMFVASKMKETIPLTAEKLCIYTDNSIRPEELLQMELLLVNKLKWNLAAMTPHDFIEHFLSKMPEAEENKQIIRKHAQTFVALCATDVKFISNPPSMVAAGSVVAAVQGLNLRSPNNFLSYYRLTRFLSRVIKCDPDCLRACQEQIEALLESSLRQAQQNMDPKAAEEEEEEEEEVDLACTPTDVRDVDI

## NS(=O)(=O)c1ccc(Nc2ncc3cc4n(c3n2)C2(CCCCC2)C(=O)NN4)cc1 [INX-315]
CDK4/cyclin D1 [1]
  inhibition at 0.1 µM: 24%
CDK7/cyclin H/MNAT1
  inhibition at 0.1 µM: -3%
LRRK2 R1441C
  inhibition at 0.1 µM: 22%
PIP5K1B
  inhibition at 0.1 µM: 38%
SPHK2
  inhibition at 0.1 µM: -19%
ABL1 G250E
  inhibition at 0.1 µM: 7%
ADRBK1 (GRK2)
  inhibition at 0.1 µM: 0%
DYRK4
  inhibition at 0.1 µM: 3%
GSK3B (GSK3 beta)
  inhibition at 0.1 µM: 17%
HIPK2
  inhibition at 0.1 µM: 5%
MAP2K1 (MEK1)
  inhibition at 0.1 µM: 15%
MYLK2 (skMLCK)
  inhibition at 0.1 µM: 4%
NTRK1 (TRKA)
  inhibition at 0.1 µM: 44%
SRPK2
  inhibition at 0.1 µM: 2%
CDK1/cyclin B1; Supp Fig S1C, value (SEM), read-out: IC50 (nM) CDK1/B1
  IC50: 30 nM
CDK1/cyclin B1; Supp Fig S1D, representative dose response curve, read-out: IC50 CDK1 - Cyclin B
  IC50: 29.1 nM
CDK2/cyclin A2
  IC50: 2.96 nM
CDK2/cyclin E1; Supp Fig S1C, value (SEM), read-out: IC50 (nM) CDK2/cyclin E1
  IC50: 0.6 nM
CDK2/cyclin E1; Supp Fig S1D, representative dose response curve, read-out: IC50 CDK2 - Cyclin E
  IC50: 0.644 nM
CDK2/cyclin E1; biochemical IC50s
  increase in potency on CDK2 relative to compound C: ~10 fold
  selectivity for CDK2 compared with CDK1: 50 fold
CDK3/cyclin E1; ATP at Km, value (SEM), read-out: IC50 (nmol/L) CDK3/cyclin E1
  IC50: 15.1 nmol/L
CDK3/cyclin E1; Supp Fig S1D, representative dose response curve, read-out: IC50 CDK3 - Cyclin E
  IC50: 15.1 nmol/L
CDK4/cyclin D1 [2]; Supp Fig S1C, value (SEM), read-out: IC50 (nM) CDK4/cyclin D1
  IC50: 126 nM
CDK4/cyclin D1 [2]; Supp Fig S1D, representative dose response curve, read-out: IC50 CDK4 - Cyclin D
  IC50: 127 nM
CDK5; ATP at Km, value (SEM), read-out: IC50 (nmol/L) CDK5
  IC50: 23.1 nmol/L
CDK5; Supp Fig S1C, value (SEM), read-out: IC50 (nM) CDK5
  IC50: 23.1 nmol/L
CDK5; Supp Fig S1D, representative dose response curve, read-out: IC50 CDK5 - p35
  IC50: 23.1 nmol/L
CDK5/p25
  IC50: 21.4 nmol/L
CDK6/cyclin D3
  IC50: 291 nM
CDK7
  IC50: > 10000 nM
CDK9/cyclin T1
  IC50: 38.6 nM
[3]; read-out: cellular IC50
  IC50: < 100 nM
[3]; read-out: cellular IC50, range
  IC50: 10 to 64 nM
[4]; read-out: IC50, range
  IC50: 159 to 3560 nM
[4]; read-out: mean IC50
  IC50: 1440 nM
OVCAR3 cells
  cell cycle effect: potent G1 arrest
